For 13 compounds, IC50 results are on record in patent publication US20240092799A1, “MNK INHIBITORS” (Hepagene Therapeutics (HK) Limited, priority 2020, published 2024).

MNK2, sequence (Q9HBH9 whole entry): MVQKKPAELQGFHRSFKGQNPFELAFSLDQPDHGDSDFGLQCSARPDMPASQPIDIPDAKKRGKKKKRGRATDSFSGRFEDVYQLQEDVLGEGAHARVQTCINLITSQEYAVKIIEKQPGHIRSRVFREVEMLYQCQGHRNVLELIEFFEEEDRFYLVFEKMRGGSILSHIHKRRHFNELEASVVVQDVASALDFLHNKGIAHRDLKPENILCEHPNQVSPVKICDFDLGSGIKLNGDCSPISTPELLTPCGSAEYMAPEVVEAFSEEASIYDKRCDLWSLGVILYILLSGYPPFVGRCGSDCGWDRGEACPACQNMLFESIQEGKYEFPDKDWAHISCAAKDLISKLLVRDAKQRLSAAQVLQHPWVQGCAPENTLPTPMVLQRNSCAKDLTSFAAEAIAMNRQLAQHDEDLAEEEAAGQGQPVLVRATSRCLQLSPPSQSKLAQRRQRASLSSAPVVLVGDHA

For this experiment, the target named is MNK2 (Homo sapiens (Human), UniProt Q9HBH9). Put plainly: MNK Biochemical Enzymatic Assay (ADP-Glo), MNK2 binding assay. The procedure, abridged:
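Human MNK1 or MNK2 was preincubated with a 10-point, 1:3 serial dilution of compound for 15 min at 25 °C. Substrate was then added and the reaction ran 60 min at 25 °C. ADP formed was read by ADP-Glo luminescence, and IC50 came from non-linear regression.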
For orientation: ADP-Glo turns the ADP formed in a reaction into a luminescent signal.
For orientation: IC50 means the concentration that gives 50% inhibition. A lower IC50 goes with greater potency. `O=C1NC2(CCCCC2)c2cc(Nc3cc(N4CCC(F)(F)CC4)ncn3)sc21` [Compound XXIII-L, 2′-((6-(4,4-Difluoropiperidin-1-yl)pyrimidin-4-yl)amino)spiro[cyclohexane-1,4′-thieno[2,3-c]pyrrol]-6′(5′H)-one] displayed an IC50 of over 1000 nM.

Compound `O=C1NC2(CCCCC2)c2cc(Nc3cc(Nc4cccnc4)ncn3)sc21` [Compound XXIII-Z] came in with an IC50 of 10 to 100 nM.

`CN(C)CCNc1cc(Nc2cc3c(s2)C(=O)NC32CCCCC2)ncn1` [Compound XXIII-A, 2′-((6-((2-(Dimethylamino)ethyl)amino)pyrimidin-4-yl)amino)spiro [cyclohexane-1,4′-thieno[2,3-c]pyrrol]-6′(5′H)-one]: the IC50 is 100 to 1000 nM.

Compound `COc1c(NC(=O)C2CC2)ncnc1Nc1cc2c(s1)C(=O)NC21CCCCC1` [Compound XX-B, N-(5-Methoxy-6-((6′-oxo-5′,6′-dihydrospiro[cyclohexane-1,4′-thieno[2,3-c]pyrrol]-2′-yl)amino)pyrimidin-4-yl)cyclopropanecarboxamide] returned an IC50 of 100 to 1000 nM.

The compound `Cc1cc(Nc2cc(Nc3ccnn3C3CCNCC3)ncn2)[n+]([O-])c2c1C(=O)NC21CCCCC1` [Compound XXIX-AAR, 4′-methyl-5′-oxo-2′-((6-((1-(piperidin-4-yl)-1H-pyrazol-5-yl)amino)pyrimidin-4-yl)amino)-5′,6′-dihydrospiro[cyclohexane-1,7′-pyrrolo[3,4-b]pyridine] 1′-oxide] showed an IC50 of 0.1 to 10 nM.

`Cc1cc(Nc2cc(NCCO)ncn2)[n+]([O-])c2c1C(=O)NC21CCCCC1` [Compound XXIX-I, 2′-((6-((2-hydroxyethyl)amino)pyrimidin-4-yl)amino)-4′-methyl-5′-oxo-5′,6′-dihydrospiro[cyclohexane-1,7′-pyrrolo[3,4-b]pyridine] 1′-oxide] registered an IC50 of 10 to 100 nM.

`Cc1cc(Nc2ccnc(N[C@H]3CCOC3)c2)[n+]([O-])c2c1C(=O)NC21CCCCC1` [Compound XXIX-H, (S)-4′-methyl-5′-oxo-2′-((2-((tetrahydrofuran-3-yl)amino)pyridin-4-yl)amino)-5′,6′-dihydrospiro[cyclohexane-1,7′-pyrrolo[3,4-b]pyridine] 1′-oxide] gave an IC50 of 100 to 1000 nM.

Compound `O=C1NC2(CCCCC2)c2cc(Nc3cc(NC4CCOCC4)ncn3)sc21` [Compound XXIV-D, 2′-((6-((tetrahydro-2H-pyran-4-yl)amino)pyrimidin-4-yl)amino)spiro[cyclohexane-1,4′-thieno[2,3-c]pyrrol]-6′(5′H)-one] registered an IC50 of 100 to 1000 nM.

`O=C1NC2(CCCCC2)c2cc(Nc3cc(N4CCOCC4)ncn3)sc21` [Compound XXIII-K, 2′-((6-Morpholinopyrimidin-4-yl)amino)spiro[cyclohexane-1,4′-thieno[2,3-c]pyrrol]-6′(5′H)-one] had an IC50 of over 1000 nM.

In turn, `CN1CCN(c2cc(Nc3cc4c(s3)C(=O)NC43CCCCC3)ncn2)CC1` [Compound XXIII-M, 2′-((6-(4-Methylpiperazin-1-yl)pyrimidin-4-yl)amino)spiro[cyclohexane-1,4′-thieno[2,3-c]pyrrol]-6′(5′H)-one] registered an IC50 of over 1000 nM.

For `NC1CCN(c2cc(Nc3cc4c(s3)C(=O)NC43CCCCC3)ncn2)C1` (stereo not shown) [Compound XXIII-D, 2′-((6-(3-Aminopyrrolidin-1-yl)pyrimidin-4-yl)amino)spiro[cyclohexane-1,4′-thieno[2,3-c]pyrrol]-6′(5′H)-one], the IC50 is over 1000 nM.

`Cc1cc(Nc2cc3c(s2)C(=O)NC32CCCCC2)ncn1` [Compound XXIII-I, 2′-((6-Methylpyrimidin-4-yl)amino)spiro[cyclohexane-1,4′-thieno[2,3-c]pyrrol]-6′(5′H)-one] registered an IC50 of 100 to 1000 nM.

`O=C1NC2(CCCCC2)c2cc(Nc3cc(Nc4ccccc4)ncn3)sc21` [Compound XXIII-B, 2′-((6-(Phenylamino)pyrimidin-4-yl)amino)spiro[cyclohexane-1,4′-thieno[2,3-c]pyrrol]-6′(5′H)-one]: the IC50 fell in the range of 10 to 100 nM.
